For assay [1], the target named is Voltage-gated inwardly rectifying potassium channel KCNH2 (Homo sapiens, UniProt Q12809). The class given is functional.
Assay [2] concerns the target 3',5'-cyclic-AMP phosphodiesterase 4A (Homo sapiens, UniProt P27815). The class given is functional.
In assay [3] the target is Histamine H3 receptor (Homo sapiens, UniProt Q9Y5N1).
The target in assay [4] is T1, Thromboxane A2 receptor (Homo sapiens, UniProt P21731).
T1 sequence (P21731 whole entry): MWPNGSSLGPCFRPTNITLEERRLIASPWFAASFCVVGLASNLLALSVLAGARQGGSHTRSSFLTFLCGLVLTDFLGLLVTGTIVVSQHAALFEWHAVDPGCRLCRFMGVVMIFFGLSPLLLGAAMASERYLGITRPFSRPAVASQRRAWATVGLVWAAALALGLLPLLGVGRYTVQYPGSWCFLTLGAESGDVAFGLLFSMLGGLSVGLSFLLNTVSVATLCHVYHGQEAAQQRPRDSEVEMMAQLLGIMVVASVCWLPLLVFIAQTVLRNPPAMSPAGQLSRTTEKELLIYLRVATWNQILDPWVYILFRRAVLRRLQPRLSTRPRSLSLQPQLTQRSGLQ
Format: functional, cell-based.

Assay [5] deals with T2, Muscarinic acetylcholine receptor M2 (Homo sapiens, UniProt P08172).
T2 sequence (P08172 whole entry): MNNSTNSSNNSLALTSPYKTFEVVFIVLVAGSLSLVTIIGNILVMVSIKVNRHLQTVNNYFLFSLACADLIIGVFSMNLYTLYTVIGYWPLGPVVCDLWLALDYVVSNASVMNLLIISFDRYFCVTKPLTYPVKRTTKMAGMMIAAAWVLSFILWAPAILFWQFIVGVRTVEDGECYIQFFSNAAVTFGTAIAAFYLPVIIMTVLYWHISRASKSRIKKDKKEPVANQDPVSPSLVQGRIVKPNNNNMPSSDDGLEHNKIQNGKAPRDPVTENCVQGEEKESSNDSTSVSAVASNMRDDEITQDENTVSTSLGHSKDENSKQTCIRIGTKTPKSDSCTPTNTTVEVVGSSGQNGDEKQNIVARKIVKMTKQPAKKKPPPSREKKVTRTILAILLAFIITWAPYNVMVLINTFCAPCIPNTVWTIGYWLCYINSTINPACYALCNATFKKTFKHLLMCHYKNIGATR

The target of assay [6] is T3, Amine oxidase [flavin-containing] A (Homo sapiens, UniProt P21397).
T3 sequence (P21397 whole entry): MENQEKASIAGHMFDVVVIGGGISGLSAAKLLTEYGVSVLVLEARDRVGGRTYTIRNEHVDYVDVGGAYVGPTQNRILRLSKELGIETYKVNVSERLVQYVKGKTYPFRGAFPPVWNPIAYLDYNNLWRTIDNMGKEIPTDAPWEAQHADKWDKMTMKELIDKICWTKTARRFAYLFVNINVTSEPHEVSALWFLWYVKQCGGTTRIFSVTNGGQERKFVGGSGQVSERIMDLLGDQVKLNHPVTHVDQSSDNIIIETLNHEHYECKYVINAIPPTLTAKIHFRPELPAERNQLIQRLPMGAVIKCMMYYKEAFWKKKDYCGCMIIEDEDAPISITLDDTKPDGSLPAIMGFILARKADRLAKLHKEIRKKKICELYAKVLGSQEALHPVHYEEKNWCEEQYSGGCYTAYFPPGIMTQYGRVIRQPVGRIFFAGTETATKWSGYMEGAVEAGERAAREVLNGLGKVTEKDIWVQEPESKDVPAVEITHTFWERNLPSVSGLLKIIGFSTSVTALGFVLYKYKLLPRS
The class given is functional.

Assay [7] deals with 5-hydroxytryptamine receptor 2B (Homo sapiens, UniProt P41595). The class given is functional, cell-based.
Sequence of 5-hydroxytryptamine receptor 2B (P41595 whole entry): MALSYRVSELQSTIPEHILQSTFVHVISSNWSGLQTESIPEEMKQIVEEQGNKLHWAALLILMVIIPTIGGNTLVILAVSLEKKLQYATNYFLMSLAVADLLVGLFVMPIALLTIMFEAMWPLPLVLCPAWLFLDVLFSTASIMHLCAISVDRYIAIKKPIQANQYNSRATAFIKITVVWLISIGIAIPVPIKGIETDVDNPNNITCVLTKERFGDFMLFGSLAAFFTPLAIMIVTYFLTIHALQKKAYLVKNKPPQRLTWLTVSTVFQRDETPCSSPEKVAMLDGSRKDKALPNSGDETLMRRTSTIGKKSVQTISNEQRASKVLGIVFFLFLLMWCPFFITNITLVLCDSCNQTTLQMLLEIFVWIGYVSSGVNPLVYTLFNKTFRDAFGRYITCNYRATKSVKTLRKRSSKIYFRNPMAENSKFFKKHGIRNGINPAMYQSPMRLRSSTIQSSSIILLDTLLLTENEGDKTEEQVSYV
For assay [8], the target named is T4, Alpha-2A adrenergic receptor (Homo sapiens, UniProt P08913).
T4 sequence (P08913 whole entry): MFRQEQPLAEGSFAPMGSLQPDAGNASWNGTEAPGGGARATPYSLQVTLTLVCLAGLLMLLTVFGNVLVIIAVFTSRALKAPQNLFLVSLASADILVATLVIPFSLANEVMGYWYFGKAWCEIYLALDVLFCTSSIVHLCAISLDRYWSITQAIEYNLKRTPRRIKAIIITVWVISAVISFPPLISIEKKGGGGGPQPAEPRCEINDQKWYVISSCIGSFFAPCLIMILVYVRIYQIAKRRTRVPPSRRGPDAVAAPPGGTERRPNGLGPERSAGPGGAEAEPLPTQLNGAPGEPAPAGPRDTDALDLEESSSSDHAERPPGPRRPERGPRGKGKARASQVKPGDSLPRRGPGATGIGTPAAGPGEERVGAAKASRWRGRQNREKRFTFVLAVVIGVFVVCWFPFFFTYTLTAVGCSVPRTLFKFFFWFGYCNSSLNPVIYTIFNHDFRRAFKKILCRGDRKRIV

Assay [9] addresses Sodium-dependent dopamine transporter (Homo sapiens, UniProt Q01959).
In assay [10] the target is Acetylcholinesterase (Homo sapiens, UniProt P22303). Format: functional.
Sequence of Acetylcholinesterase (P22303 whole entry): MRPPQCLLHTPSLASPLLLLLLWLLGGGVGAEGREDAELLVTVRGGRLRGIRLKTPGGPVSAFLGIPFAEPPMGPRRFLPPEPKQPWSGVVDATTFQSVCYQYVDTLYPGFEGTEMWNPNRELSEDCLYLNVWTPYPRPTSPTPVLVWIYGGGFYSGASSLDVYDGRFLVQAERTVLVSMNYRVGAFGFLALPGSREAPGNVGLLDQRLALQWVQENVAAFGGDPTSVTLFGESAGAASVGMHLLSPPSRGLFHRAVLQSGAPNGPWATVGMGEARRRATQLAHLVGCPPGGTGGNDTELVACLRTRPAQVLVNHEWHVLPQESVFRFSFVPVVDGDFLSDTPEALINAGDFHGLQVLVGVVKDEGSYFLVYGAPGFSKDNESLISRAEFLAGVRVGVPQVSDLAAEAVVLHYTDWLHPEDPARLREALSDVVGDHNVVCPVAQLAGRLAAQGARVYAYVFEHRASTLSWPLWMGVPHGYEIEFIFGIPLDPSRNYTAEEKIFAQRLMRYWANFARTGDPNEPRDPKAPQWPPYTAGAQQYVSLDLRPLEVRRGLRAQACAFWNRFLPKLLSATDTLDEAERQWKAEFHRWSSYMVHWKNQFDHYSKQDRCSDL
Assay [11] concerns the target T5, 5-hydroxytryptamine receptor 1A (Homo sapiens, UniProt P08908).
T5 sequence (P08908 whole entry): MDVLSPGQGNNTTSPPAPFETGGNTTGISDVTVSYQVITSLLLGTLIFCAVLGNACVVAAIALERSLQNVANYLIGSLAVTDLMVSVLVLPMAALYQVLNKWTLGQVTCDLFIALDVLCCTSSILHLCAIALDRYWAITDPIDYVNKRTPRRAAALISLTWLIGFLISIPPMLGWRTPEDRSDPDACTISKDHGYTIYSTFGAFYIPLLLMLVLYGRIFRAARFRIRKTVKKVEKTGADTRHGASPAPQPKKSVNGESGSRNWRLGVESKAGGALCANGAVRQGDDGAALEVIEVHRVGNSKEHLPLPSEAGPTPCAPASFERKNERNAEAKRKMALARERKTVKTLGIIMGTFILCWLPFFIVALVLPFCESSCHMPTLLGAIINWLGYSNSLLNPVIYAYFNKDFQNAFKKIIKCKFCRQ

The target of assay [12] is cGMP-inhibited 3',5'-cyclic phosphodiesterase 3A (Homo sapiens, UniProt Q14432). The class given is functional.
Sequence of cGMP-inhibited 3',5'-cyclic phosphodiesterase 3A (Q14432 whole entry): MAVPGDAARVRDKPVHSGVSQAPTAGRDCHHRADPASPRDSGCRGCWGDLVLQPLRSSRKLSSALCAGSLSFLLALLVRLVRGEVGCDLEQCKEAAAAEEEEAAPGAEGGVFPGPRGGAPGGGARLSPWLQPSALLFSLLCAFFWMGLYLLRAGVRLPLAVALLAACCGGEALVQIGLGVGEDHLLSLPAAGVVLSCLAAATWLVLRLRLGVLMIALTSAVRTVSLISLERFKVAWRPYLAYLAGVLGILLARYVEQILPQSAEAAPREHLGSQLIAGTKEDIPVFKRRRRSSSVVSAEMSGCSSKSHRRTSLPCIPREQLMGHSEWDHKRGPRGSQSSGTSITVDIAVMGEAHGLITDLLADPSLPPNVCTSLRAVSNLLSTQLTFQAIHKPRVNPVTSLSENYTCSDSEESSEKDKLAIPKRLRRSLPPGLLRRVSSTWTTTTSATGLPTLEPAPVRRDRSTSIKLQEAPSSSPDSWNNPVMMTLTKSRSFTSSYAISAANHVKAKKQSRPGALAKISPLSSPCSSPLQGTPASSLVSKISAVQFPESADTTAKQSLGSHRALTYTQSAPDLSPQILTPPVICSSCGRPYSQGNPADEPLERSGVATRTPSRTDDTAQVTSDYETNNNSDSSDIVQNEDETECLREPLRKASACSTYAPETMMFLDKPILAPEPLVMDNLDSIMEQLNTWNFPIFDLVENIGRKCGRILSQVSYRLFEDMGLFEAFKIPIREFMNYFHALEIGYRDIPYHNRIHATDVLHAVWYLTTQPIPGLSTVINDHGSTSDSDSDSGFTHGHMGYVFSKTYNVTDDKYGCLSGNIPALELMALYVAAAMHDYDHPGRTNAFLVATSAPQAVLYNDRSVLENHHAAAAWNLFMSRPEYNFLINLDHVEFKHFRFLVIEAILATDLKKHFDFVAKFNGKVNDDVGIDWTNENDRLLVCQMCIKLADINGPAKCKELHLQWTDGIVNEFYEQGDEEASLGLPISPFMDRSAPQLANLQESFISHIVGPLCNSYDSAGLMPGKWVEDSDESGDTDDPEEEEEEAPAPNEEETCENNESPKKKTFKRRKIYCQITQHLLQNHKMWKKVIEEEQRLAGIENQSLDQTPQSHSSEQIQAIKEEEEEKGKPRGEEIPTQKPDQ
For assay [13], the target named is Prothrombin (Homo sapiens, UniProt P00734). Format: functional.
Assay [14] deals with T1, Thromboxane A2 receptor. Format: functional, cell-based. This is another data set of the same source.
Note: assay procedure not described here.

Sequence of Histamine H3 receptor (Q9Y5N1 whole entry): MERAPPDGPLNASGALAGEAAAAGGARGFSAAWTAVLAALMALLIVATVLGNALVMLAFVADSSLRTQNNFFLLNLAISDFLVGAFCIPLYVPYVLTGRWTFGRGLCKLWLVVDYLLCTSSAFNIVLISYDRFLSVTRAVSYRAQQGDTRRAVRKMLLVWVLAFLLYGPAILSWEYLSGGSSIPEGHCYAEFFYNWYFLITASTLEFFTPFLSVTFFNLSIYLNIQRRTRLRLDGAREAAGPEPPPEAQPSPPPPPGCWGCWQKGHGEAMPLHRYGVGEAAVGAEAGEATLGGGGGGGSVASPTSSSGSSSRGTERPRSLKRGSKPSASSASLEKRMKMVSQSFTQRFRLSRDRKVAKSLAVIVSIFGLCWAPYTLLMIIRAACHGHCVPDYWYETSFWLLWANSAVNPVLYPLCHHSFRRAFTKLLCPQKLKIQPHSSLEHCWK
Sequence of 3',5'-cyclic-AMP phosphodiesterase 4A (P27815 whole entry): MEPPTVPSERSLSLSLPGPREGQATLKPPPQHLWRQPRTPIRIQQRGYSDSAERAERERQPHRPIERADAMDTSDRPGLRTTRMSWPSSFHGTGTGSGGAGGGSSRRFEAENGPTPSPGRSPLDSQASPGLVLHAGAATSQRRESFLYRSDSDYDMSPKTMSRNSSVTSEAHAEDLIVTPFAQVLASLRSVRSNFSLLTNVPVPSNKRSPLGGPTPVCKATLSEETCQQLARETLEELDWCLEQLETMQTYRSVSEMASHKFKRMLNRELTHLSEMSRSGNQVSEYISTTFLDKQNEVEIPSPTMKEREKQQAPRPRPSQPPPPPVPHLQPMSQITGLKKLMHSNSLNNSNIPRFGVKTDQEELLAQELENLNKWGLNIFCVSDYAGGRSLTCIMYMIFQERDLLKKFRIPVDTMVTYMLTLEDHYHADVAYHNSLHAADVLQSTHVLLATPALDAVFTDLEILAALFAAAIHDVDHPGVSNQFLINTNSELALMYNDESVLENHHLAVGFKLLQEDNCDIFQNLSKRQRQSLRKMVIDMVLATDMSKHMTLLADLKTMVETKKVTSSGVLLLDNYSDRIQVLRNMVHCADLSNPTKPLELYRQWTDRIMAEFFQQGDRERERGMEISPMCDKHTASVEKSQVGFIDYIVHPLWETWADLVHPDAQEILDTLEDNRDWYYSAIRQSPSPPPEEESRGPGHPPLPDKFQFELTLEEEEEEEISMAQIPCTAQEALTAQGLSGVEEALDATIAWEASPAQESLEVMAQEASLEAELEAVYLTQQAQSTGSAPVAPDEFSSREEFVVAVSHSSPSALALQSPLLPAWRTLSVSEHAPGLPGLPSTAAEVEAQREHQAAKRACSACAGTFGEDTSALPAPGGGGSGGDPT
Sequence of Voltage-gated inwardly rectifying potassium channel KCNH2 (Q12809 whole entry): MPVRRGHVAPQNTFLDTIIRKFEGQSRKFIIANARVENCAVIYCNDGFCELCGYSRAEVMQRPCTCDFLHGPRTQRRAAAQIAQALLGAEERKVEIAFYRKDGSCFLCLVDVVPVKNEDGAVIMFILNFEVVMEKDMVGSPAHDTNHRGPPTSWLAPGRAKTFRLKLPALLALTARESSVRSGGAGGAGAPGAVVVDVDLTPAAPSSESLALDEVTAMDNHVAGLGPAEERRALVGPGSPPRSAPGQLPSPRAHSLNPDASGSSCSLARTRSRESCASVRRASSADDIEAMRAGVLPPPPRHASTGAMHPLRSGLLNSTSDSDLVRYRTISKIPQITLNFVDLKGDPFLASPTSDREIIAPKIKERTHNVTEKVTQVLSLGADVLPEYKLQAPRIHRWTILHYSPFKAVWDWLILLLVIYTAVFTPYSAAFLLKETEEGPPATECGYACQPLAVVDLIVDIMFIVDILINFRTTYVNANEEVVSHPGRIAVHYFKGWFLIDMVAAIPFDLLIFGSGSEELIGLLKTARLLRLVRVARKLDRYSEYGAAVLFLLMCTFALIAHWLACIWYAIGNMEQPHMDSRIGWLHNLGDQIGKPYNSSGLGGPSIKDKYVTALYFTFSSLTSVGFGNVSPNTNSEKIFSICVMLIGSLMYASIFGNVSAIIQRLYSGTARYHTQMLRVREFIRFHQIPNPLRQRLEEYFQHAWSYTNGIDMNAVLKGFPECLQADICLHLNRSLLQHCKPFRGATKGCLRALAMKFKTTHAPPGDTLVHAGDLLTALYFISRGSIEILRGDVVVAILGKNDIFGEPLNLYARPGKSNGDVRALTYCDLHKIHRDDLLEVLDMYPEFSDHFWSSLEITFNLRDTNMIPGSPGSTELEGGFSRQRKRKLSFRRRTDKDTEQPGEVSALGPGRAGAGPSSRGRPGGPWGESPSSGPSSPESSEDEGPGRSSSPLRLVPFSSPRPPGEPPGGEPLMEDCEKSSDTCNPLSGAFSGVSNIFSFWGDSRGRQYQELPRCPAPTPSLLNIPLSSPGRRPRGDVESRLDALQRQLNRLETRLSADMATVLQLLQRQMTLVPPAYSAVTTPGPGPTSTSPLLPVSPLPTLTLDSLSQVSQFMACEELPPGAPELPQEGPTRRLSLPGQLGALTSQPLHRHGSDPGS

For `COc1cccc(C(=O)CCN[C@@H](C)[C@H](O)c2ccccc2)c1` [OXYFEDRINE], the half-maximal activity concentration (AC50) was 10 µM in assay [1]; more than 30 µM in assay [2]; more than 30 µM in [3]; more than 30 µM in assay [4]; more than 30 µM in assay [5]; more than 30 µM in assay [6]. Besides, the AC50 was more than 30 µM in [7]; 5.96 µM in assay [8]; 2.97 µM in assay [9]; more than 30 µM in [10]; 0.0096 µM in assay [11]; more than 30 µM in [12]. In addition, the AC50 in assay [13] and in assay [14] was more than 30 µM throughout.

Take `C[C@@H]1C[C@H]2[C@@H]3C[C@H](F)C4=CC(=O)C=C[C@]4(C)[C@H]3[C@@H](O)C[C@]2(C)[C@@]1(O)C(=O)CO` [PARAMETHASONE]: the AC50 in assay [1], in [2], in assay [3], in assay [4], in assay [5] and in assay [6] was more than 30 µM in each case. Besides, the AC50 in assay [7], in assay [8], in assay [9], in assay [10], in assay [11] and in [12] was more than 30 µM in each case. Besides, the concentration at half-maximal activity (AC50) in assay [13] and in [14] was more than 30 µM in each case.

Regarding `CC(OCCN1CCCCCC1)(c1ccccc1)c1ccc(Cl)cc1` (configuration not stated) [SETASTINE], the AC50 in [1] was 0.14 µM; in assay [2] it was more than 30 µM; in [3], 23.2 µM; in [4] it was 8.8 µM; in assay [5], 0.393 µM; in assay [6] it was more than 30 µM. Further, the AC50 in assay [7] was more than 30 µM; in [8], 7.86 µM; in assay [9], 2.98 µM; in [10] it was 9.61 µM; in [11], 9.59 µM; in assay [12] it was more than 30 µM. The AC50 in [13] and in assay [14] was more than 30 µM throughout.

Regarding `Cc1ncc2c(c1O)COC2c1ccc(Cl)cc1` (configuration not stated) [CICLETANINE], the AC50 in assay [1], in [2], in assay [3], in assay [4], in assay [5] and in assay [6] was more than 30 µM throughout. The AC50 in assay [7], in assay [8], in assay [9], in assay [10], in assay [11] and in [12] was more than 30 µM in each case. The AC50 in [13] and in [14] was more than 30 µM throughout.

Turning to `c1ccc2c(SC3=NCCN3)c[nH]c2c1` [TINAZOLINE], the AC50 in assay [1] is more than 30 µM; in assay [2], more than 30 µM; in [3], more than 30 µM; in assay [4] it was more than 30 µM; in assay [5], more than 30 µM; in assay [6] it was 15.9 µM. In addition, the half-maximal activity concentration (AC50) is more than 30 µM in [7]; 0.0098 µM in assay [8]; more than 30 µM in assay [9]; more than 30 µM in assay [10]; 0.19 µM in [11]; more than 30 µM in assay [12]. Also, the AC50 in assay [13] and in assay [14] was more than 30 µM each time.

Turning to `CCC[C@H](N[C@@H](C)C(=O)N1[C@H](C(=O)O)C[C@@H]2CCCC[C@@H]21)C(=O)OCC` [PERINDOPRIL], the AC50 in assay [2], in [3], in [4], in assay [5], in assay [6] and in assay [7] was more than 30 µM in each case. In addition, the half-maximal activity concentration (AC50) in assay [8], in [9], in assay [10], in [11], in assay [12] and in assay [13] was more than 30 µM each time. Further, in assay [14], the AC50 was more than 30 µM.

In the case of `CC(O)(P(=O)(O)O)P(=O)(O)O` [ETIDRONIC ACID], the AC50 in assay [2], in [3], in [4], in [5], in assay [6] and in assay [7] was more than 30 µM throughout. The half-maximal activity concentration (AC50) in assay [8], in [9], in assay [10], in assay [11], in assay [12] and in assay [13] was more than 30 µM each time. For the same compound, the half-maximal activity concentration (AC50) in assay [14] is more than 30 µM.

On to `CC1(C)S[C@@H]2[C@H](/N=C/N3CCCCCC3)C(=O)N2[C@H]1C(=O)O` [AMDINOCILLIN], for which the AC50 in [2], in assay [3], in [4], in assay [5], in assay [6] and in assay [7] was more than 30 µM each time. The concentration at half-maximal activity (AC50) in assay [8], in assay [9], in [10], in [11], in assay [12] and in assay [13] was more than 30 µM in each case. In assay [14], this compound displayed an AC50 of more than 30 µM.

`C[C@H](N[C@@H](CCc1ccccc1)C(=O)O)C(=O)N1Cc2ccccc2C[C@H]1C(=O)O`: the AC50 in assay [2], in assay [3], in [4], in assay [5], in assay [6] and in assay [7] was more than 30 µM each time. Also, the concentration at half-maximal activity (AC50) in [8], in [9], in [10], in assay [11], in [12] and in assay [13] was more than 30 µM throughout. The AC50 in [14] was more than 30 µM.

In general, AC50 refers to the midpoint of the concentration-response curve, whichever way the signal moves. Higher therefore signals weaker potency.

For the origin of these results see ChEMBL document CHEMBL5291721, “A preclinical secondary pharmacology resource illuminates target-adverse drug reaction associations of marketed drugs” (Nat Commun, 2023).
